pIC50: −log10 of the molar value. ≈ marks a conversion by molar mass, not a printed value. Read-outs that look alike come from different tables or passages of the source.
Tests used:
[1] = target: T1, MRSA PK (Staphylococcus aureus, UniProt Q6GG09); assay: MRSA PK activity, continuous LDH-coupled assay; assay type: biochemical, S. aureus (MRSA strain Sanger 252)
T1 construct: His tag (pET-28a(+) vector) (N); made in house; host or cells: E. coli BL-21 (DE3)
Summary of the method: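 Purified His-tagged MRSA PK (15 nM, E. coli-expressed) started reactions run up to 5 min at 30 °C. Activity was followed continuously by LDH-coupled NADH oxidation at 340 nm, with DMSO ≤1%. IC50 came from four-parameter variable-slope fits.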

[2] = system: S. aureus ATCC 29213; assay: In vitro susceptibility, broth microdilution MIC; assay type: cell-based, Staphylococcus aureus; conditions: Staphylococcus aureus, read-out: MIC
Summary of the method: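 The MIC against S. aureus 29213 was determined by CLSI 2-fold serial broth microdilution in Mueller Hinton broth. Plates were incubated for 18–24 h at 37 °C and read at OD600 with background subtracted. The MIC was the lowest concentration giving complete growth inhibition versus compound-free wells.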

[3] = ATCC29213, Table 8, tested at least in duplicate, differing values all given
[4] = read-out: % inhibition at the highest concentration tested (IC50)
[5] = ATCC29213, Tables 1-6 and text, minimum concentration to give >98% inhibition of growth
[6] = Tables 1-6, 2 mM ADP, 10 mM PEP, 15 nM PK, read-out: IC50

T1 sequence (Q6GG09 whole entry): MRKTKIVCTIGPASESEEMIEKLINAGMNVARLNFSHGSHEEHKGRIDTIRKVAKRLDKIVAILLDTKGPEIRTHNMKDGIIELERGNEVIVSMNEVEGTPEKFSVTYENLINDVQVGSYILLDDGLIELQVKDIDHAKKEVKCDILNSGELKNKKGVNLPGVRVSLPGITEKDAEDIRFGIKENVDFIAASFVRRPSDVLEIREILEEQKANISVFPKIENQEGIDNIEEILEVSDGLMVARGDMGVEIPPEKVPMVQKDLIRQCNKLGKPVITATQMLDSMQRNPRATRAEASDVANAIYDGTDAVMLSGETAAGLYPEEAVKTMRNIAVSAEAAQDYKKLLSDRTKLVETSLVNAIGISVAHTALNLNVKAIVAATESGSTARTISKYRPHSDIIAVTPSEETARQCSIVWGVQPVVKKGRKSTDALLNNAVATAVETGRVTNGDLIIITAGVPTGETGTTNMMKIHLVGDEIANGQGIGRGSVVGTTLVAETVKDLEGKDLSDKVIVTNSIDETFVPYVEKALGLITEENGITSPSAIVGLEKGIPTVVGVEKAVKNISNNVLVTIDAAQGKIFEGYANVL

Compound	pIC50 [1]	MIC [2, 3] [µg/mL]	MIC [2, 5] [µg/mL]	also measured
Clc1ccc2[nH]c(-c3cc4ccc(Br)cc4[nH]3)nc2c1 [Compound 164, 2-(6-bromo-1H-indol-2-yl)-5-chloro-1H-benzo[d]imidazole]	> 7.30	1 (≈ 2.89 µM)		
O=C(Nc1ccc(Br)cc1)c1cc2ccc(Br)cc2s1 [Compound 71, 6-bromo-N-(4-bromophenyl)benzo[b]thiophene-2-carboxamide]			> 64	inhibition at 10 µM [1, 4]: 55%
Brc1ccc(-c2ccc(-c3cncc(-c4cc5ccccc5[nH]4)n3)cc2)cc1 [Compound 61, 2-(6-(4′-Bromo-[1,1′-biphenyl]-4-yl)pyrazin-2-yl)-1H-indole]			> 64	inhibition at 0.1 µM ([1]; read-out: % inhibition (IC50)): 61%
O=C(Nc1nc2ccc(Br)cc2[nH]1)c1cc(Br)ccc1O [Compound 78, 5-Bromo-N-(6-bromo-1H-benzo[d]imidazol-2-yl)-2-hydroxybenzamide]	7.95		4 (≈ 9.73 µM)	
COc1ccc(Br)cc1C(=O)Nc1nc2ccc(Br)cc2s1 [Compound 68, 5-Bromo-N-(6-bromobenzo[d]thiazol-2-yl)-2-methoxybenzamide]	8.08		> 64	
COC(=O)c1c(C(=O)Nc2ccc(Cl)cc2)[nH]c2cc(Br)ccc12 [Compound 130, Methyl 6-bromo-2-((4-chlorophenyl)carbamoyl)-1H-indole-3-carboxylate]	> 7.30	> 64		
O=C(Nc1cccc(Br)c1O)c1cc2ccc(Br)cc2[nH]1 [Compound 64, 6-Bromo-N-(3-bromo-2-hydroxyphenyl)-1H-indole-2-carboxamide]			> 64	pIC50 [1, 6]: 6.94
Brc1ccc2cc(CCc3cn4c(n3)CCCC4)[nH]c2c1 [Compound 126, 2-(2-(6-Bromo-1H-indol-2-yl)ethyl)-5,6,7,8-tetrahydroimidazo[1,2-a]pyridine]	< 4.00	64 (≈ 186 µM)		
O=C(c1cc2ccc(Br)cc2[nH]1)c1cc(Br)ccc1O [Compound 87, (6-Bromo-1H-indol-2-yl)(5-bromo-2-hydroxyphenyl)methanone]			> 64	inhibition at 10 µM [1, 4]: 58%
Clc1cc(Cl)cc(CCc2cc3ccc(Br)cc3[nH]2)c1 [Compound 119, 6-Bromo-2-(3,5-dichlorophenethyl)-1H-indole]	< 4.00	> 64		
O=C(c1c(CCc2cc(Cl)cc(Cl)c2)[nH]c2cc(Br)ccc12)C(F)(F)F [Compound 171, 1-(6-Bromo-2-(3,5-dichlorophenethyl)-1H-indol-3-yl)-2,2,2-trifluoroethanone]	< 6.00	1 (≈ 2.15 µM)		
Fc1ccc(/C=C/c2cc3ccc(Br)cc3[nH]2)cc1 [Compound 103, (E)-6-Bromo-2-(4-fluorostyryl)-1H-indole]	< 6.00	> 64		
Brc1ccc2cc(/C=C/c3cn4ccccc4n3)[nH]c2c1 [Compound 110, (E)-2-(2-(6-Bromo-1H-indol-2-yl)vinyl)imidazo[1,2-a]pyridine]	> 7.30	> 64		
Cc1cnc(/C=C/c2cc3ccc(Br)cc3[nH]2)cn1 [Compound 109, (E)-6-Bromo-2-(2-(5-methylpyrazin-2-yl)vinyl)-1H-indole]	< 6.00	> 64		
O=C(Nc1nc2ccc(Br)cc2s1)c1ccc(Br)cc1O [Compound 67, 4-Bromo-N-(6-bromobenzo[d]thiazol-2-yl)-2-hydroxybenzamide]			> 64	pIC50 [1, 6]: 6.67
Brc1ccc2cc(C#Cc3cc4ccc(Br)cc4[nH]3)[nH]c2c1 [Compound 25b, 1,2-Bis(6-bromo-1H-indol-2-yl)ethyne]			> 64	pIC50 [1, 6]: 8.62
Brc1ccc2cc(CNCc3ccccc3)[nH]c2c1 [Compound 146, N-Benzyl-1-(6-bromo-1H-indol-2-yl)methanamine]	< 6.00	32 (≈ 102 µM)		
Brc1ccc(/C=C/c2cc3ccc(Br)cc3[nH]2)cc1 [Compound 36b, (E)-6-bromo-2-(4-bromostyryl)-1H-indole]	9.00		> 64	
CC(=O)c1c(CCc2ccccc2)[nH]c2cc(Br)ccc12 [Compound 39a, 1-(6-bromo-2-phenethyl-1H-indol-3-yl)ethanone]	6.22		> 64	
Brc1ccc2cc(CSc3nc4ccccc4[nH]3)[nH]c2c1 [Compound 148, 2-(((6-Bromo-1H-indol-2-yl)methyl)thio)-1H-benzo[d]imidazole]	< 6.00	32 (≈ 89.3 µM)		
O=C(c1c(C#Cc2ncccn2)[nH]c2cc(Br)ccc12)C(F)(F)F [Compound 169, 1-(6-Bromo-2-(pyrimidin-2-ylethynyl)-1H-indol-3-yl)-2,2,2-trifluoroethanone]	< 4.00	> 64		
Brc1cncc(/C=C/c2cc3ccc(Br)cc3[nH]2)c1 [Compound 100, (E)-6-Bromo-2-(2-(5-bromopyridin-3-yl)vinyl)-1H-indole]	< 6.00	> 64		

Compound	pIC50 [1]	MIC [2, 3] [µg/mL]	MIC [2, 5] [µg/mL]	also measured
O=C(Nc1nc2ccc(Br)cc2[nH]1)c1cc2cc(Br)ccc2[nH]1 [Compound 79, 5-bromo-N-(6-bromo-1H-benzo[d]imidazol-2-yl)-1H-indole-2-carboxamide]	8.46		> 64	
Brc1ccc2cc(-c3ccc(-c4cc5ccc(Br)cc5[nH]4)s3)[nH]c2c1 [Compound 33b, 2,5-bis(6-bromo-1H-indol-2-yl)thiophene]			> 64	inhibition at 1 µM [1, 4]: 28%
Brc1ccc2[nH]c(C#Cc3cc4cc(Br)ccc4[nH]3)cc2c1 [Compound 45, 1,2-bis(5-Bromo-1H-indol-2-yl)ethyne]			> 64	inhibition at 10 µM [1, 4]: 60%
O=C(Nc1nc2cc(Br)ccc2s1)c1cc(Br)ccc1O [Compound 50, 5-Bromo-N-(5-bromobenzo[d]thiazol-2-yl)-2-hydroxybenzamide]			> 64	inhibition at 10 µM [1, 4]: 60%
Brc1ccc2[nH]c(-c3cc4cc(Br)c(Br)cc4[nH]3)cc2c1 [Compound 10m, 5,5′,6-Tribromo-1H,1′H-2,2′-biindole]			1 (≈ 2.13 µM)	pIC50 [1, 6]: 8.80
O=C(Nc1ccc(Cl)cc1)c1[nH]c2cc(Br)ccc2c1C(=O)O [Compound 129, 6-Bromo-2-((4-chlorophenyl)carbamoyl)-1H-indole-3-carboxylic acid]	> 7.30	16 (≈ 40.6 µM)		
O=C(Nc1nc2ccc(Br)cc2s1)c1cc2cc(Br)ccc2[nH]1 [Compound 82, 5-Bromo-N-(6-bromobenzo[d]thiazol-2-yl)-1H-indole-2-carboxamide]	7.65		> 64	
Clc1cccc(/C=C/c2cc3ccc(Br)cc3[nH]2)c1 [Compound 96, (E)-6-Bromo-2-(3-chlorostyryl)-1H-indole]	6.00 to 7.00	> 64		
O=C(Nc1nc2ccc(Br)cc2s1)c1ccccc1O [Compound 66]			> 64	inhibition at 10 µM [1, 4]: 59%
Brc1ccc2[nH]c(-c3ccc(-c4cc5cc(Br)ccc5[nH]4)s3)cc2c1 [Compound 43, 2,5-bis(5-Bromo-1H-indol-2-yl)thiophene]			> 64	inhibition at 10 µM [1, 4]: 50%
CC(=O)c1c(CCc2ccc(Cl)cc2)[nH]c2cc(Br)ccc12 [Compound 39b, 1-(6-bromo-2-(4-chlorophenethyl)-1H-indol-3-yl)ethanone]	7.55		4 (≈ 10.6 µM)	
O=C(O)c1cc(Br)cc2[nH]c(/C=C/c3ccc(Cl)cc3)cc12 [Compound 158, (E)-6-Bromo-2-(4-chlorostyryl)-1H-indole-4-carboxylic acid]	< 6.00	32 (≈ 85 µM)		
Brc1ccc2[nH]c(/C=C/c3cc4ccc(Br)cc4[nH]3)cc2c1 [Compound 27c, (E)-6-bromo-2-(2-(5-bromo-1H-indol-2-yl)vinyl)-1H-indole]			> 64	pIC50 [1, 6]: 8.39
Brc1ccc(-c2c[nH]c3cc(Br)ccc23)cc1 [Compound 57, 6-bromo-3-(4-bromophenyl)-1H-indole]			2 (≈ 5.7 µM)	pIC50 [1, 6]: 6.99
c1ccc2[nH]c(-c3ccc(-c4cc5ccccc5[nH]4)cc3)cc2c1 [Compound 46]			> 16	inhibition at 10 µM [1, 4]: 52%
Cn1c(C(=O)Nc2nc3ccc(Br)cc3s2)cc2ccccc21 [Compound 69, N-(6-Bromobenzo[d]thiazol-2-yl)-1-methyl-1H-indole-2-carboxamide]			> 64	inhibition at 10 µM [1, 4]: 61%
Brc1ccc(/C=C/c2cc3ccc(Br)cc3[nH]2)nc1 [Compound 99, (E)-6-Bromo-2-(2-(5-bromopyridin-2-yl)vinyl)-1H-indole]	7.00 to 7.30	32 (≈ 84.6 µM)		
COc1ccc(/C=C/c2cc3ccc(Br)cc3[nH]2)nc1 [Compound 107, (E)-6-Bromo-2-(2-(5-methoxypyridin-2-yl)vinyl)-1H-indole]	7.00 to 7.30	> 64		
O=C(c1c(/C=C/c2ccc(Br)cn2)[nH]c2cc(Br)ccc12)C(F)(F)F [Compound 174, (E)-1-(6-Bromo-2-(2-(5-bromopyridin-2-yl)vinyl)-1H-indol-3-yl)-2,2,2-trifluoroethanone]	< 6.00	32 (≈ 67.5 µM)		
Brc1ccc2[nH]c(-c3ccc(-c4cc5ccc(Br)cc5[nH]4)s3)cc2c1 [Compound 47, 6-Bromo-2-(5-(5-bromo-1H-indol-2-yl)thiophen-2-yl)-1H-indole]			> 64	inhibition at 10 µM [1, 4]: 52%
O=C(Nc1ccc(Br)cc1)c1cc2ccc(Br)cc2[nH]1 [Compound 63, 6-Bromo-N-(4-bromophenyl)-1H-indole-2-carboxamide]	8.01		> 64	
